Assay results as given in article PMC7008171 (Frontiers in Pharmacology, 2020).
Values joined by “and” are separate entries in the source; they are usually repeats but may differ in a detail not shown here. Equal values may be shown once. Marks after values point to notes of the source that are not given here.

Experiments:
[1] = design: method as in Mannens et al., 1994; conditions: dog plasma; ref Mannens et al., 1994; cited from earlier work
in vivo = conditions: both, Beagle, dog, plasma, 1 mg
Experimental: (§1) The dogs were kept still for 2 min. A dose of 1 mg/body was administrated.
(§2) Four healthy Beagle dogs (male:female, 1:1) weighting 9.04 ± 1.88 kg (Certificate No. 20150005001131), purchased from Shanghai Jambo Biological Technology Co., Ltd (Shanghai, China), were used in this study. The study protocol was reviewed and approved by the Animal Management and Ethic Committee of the China State Institute of Pharmaceutical Industry. Dogs were housed individually in stainless steel cages. Tap water was given ad-libitum and food was provided once daily. Dogs were fasted for 12 h before drug administration. Blank blood samples were withdrawn prior to the administration of the drugs. Subsequently, blood samples were taken from forelimb vein at 0.167, 0.333, 0.5, 0.75, 1.0, 1.5, 2.0, 3.0, 4.0, 6.0, 8.0, 12, 24, and 32 h into heparin sodium-containing centrifuge tubes which were then centrifuged for 5 min at 3,000 rpm. The supernatant was collected and stored at -20 °C in the refrigerator until further analysis.
(§3) The main pharmacokinetic parameters of maximum plasma concentration (Cmax), peak time (Tmax), area under the concentration-time curve from 0 h to the time of last measurable concentration (AUC0-t), and AUC from 0 to infinity (AUC0-∞), mean residue time (MRT), apparent volume of distribution (Vd), elimination half-life (t1/2), and in vivo clearance (CL) were calculated by non-compartmental approach using the software of DAS 2.0 ([Cheng et al., 2016]).
(§4) Calibration curves were constructed in the concentration range of 0.2–200 ng/ml with a lower limit of quantification (LLOQ) of 0.2 ng/ml. […] The HPLC system (Shimadzu Co. Ltd, Kyoto, Japan) equipped with a triple quadruple mass spectrometer (Shimadzu Co. Ltd, Kyoto, Japan) operating with ESI in the positive mode was used for the quantification of the analytes. Mobile phases consisted of methanol and water (35:65, v/v), both containing 0.05% formic acid and 5 mM ammonium formate. The flow rate was set at 0.3 ml/min. Ten μl of the aliquot was injected into the Inspire C18 column (2.1 mm×50 mm, 3 μm, Dikma Technologies Inc, Beijing, China) at a column oven of 40 °C. […] Direct protein precipitation using acetonitrile was used for the extraction of analytes from dog plasma.

[2] = ref PMDA label, 2018; cited from earlier work
[3] = taken orally; ref Huang et al., 1993; de Leon et al., 2010; Shimizu et al., 2017; cited from earlier work
[4] = Pharmacokinetic study in Beagle dogs (i.v., i.g., supralingual, sublingual; crossover, single dose);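 also: Single-dose crossover across four periods with one-week washout, plasma drug levels quantified by LC-MS/MS in positive ESI mode, lower quantification limit 0.2 ng/mL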; conditions: three-compartmental fit of i.v. profile in Beagle dogs
Experimental: as §1, §2, §3, §4

[5] = sublingual tablets (Intermezzo), OCCAT model; ref Xia et al., 2015; cited from earlier work

Question: With `Cc1nc2n(c(=O)c1CCN1CCC(c3noc4cc(F)ccc34)CC1)CCCC2` [risperidone] as the compound, how does the “fu (plasma unbound fraction)” value [1] read?
Answer: Its value is 0.083 ^c.

Question: What about the AUC(0-inf) (in vivo) of the same compound?
Answer: The AUC(0-inf) was 102 ± 43.3 ng·h/mL.

Question: What about the AUC(0-t) (in vivo) of the same compound?
Answer: The AUC(0-t) was 98.9 ± 40.9 ng·h/mL.

Question: And the Cmax (in vivo)?
Answer: Its Cmax is 52.6 ± 10.6 ng/mL.

Question: And the MRT inf (in vivo)?
Answer: Its MRT inf is 1.93 ± 0.52 h.

Question: And the MRT last (in vivo)?
Answer: The MRT last was 1.78 ± 0.41 h.

Question: What about the Tmax (in vivo) of the same compound?
Answer: Its Tmax is 0.67 ± 0.38 h.

Question: And the Vd (in vivo)?
Answer: Its Vd is 17.8 ± 3.06 L.

Question: And the clearance (in vivo)?
Answer: Its clearance is 184 mL/min.

Question: What about the half-life (in vivo) of the same compound?
Answer: Its half-life is 1.21 ± 0.4 h.

Question: What about the AUC(0-inf) (in vivo; iv) of the same compound?
Answer: The AUC(0-inf) was 179 ± 115 ng·h/mL.

Question: What about the AUC(0-t) (in vivo; iv) of the same compound?
Answer: The AUC(0-t) was 177 ± 113 ng·h/mL.

Question: What about the Cmax (in vivo; iv) of the same compound?
Answer: Its Cmax is 215 ± 56.4 ng/mL.

Question: And the MRT inf (in vivo; iv)?
Answer: Its MRT inf is 1.4 ± 0.89 h.

Question: What about the MRT last (in vivo; iv) of the same compound?
Answer: The MRT last was 1.3 ± 0.8 h.

Question: And the Tmax (in vivo; iv)?
Answer: Its Tmax is 0.03 h.

Question: What about the Vd (in vivo; iv) of the same compound?
Answer: Its Vd is 12.8 L and 0.314 L/kg.

Question: And the clearance (in vivo; iv)?
Answer: Its clearance is 128 mL/min and 9.84 mL/min/kg.

Question: What about the half-life (in vivo; iv) of the same compound?
Answer: The half-life was 1.37 ± 0.82 h.

Question: What about the AUC(0-inf) (in vivo; other: supralingual) of the same compound?
Answer: Its AUC(0-inf) is 102 ± 57.4 ng·h/mL.

Question: And the AUC(0-t) (in vivo; other: supralingual)?
Answer: The AUC(0-t) was 97.3 ± 54.4 ng·h/mL.

Question: And the Cmax (in vivo; other: supralingual)?
Answer: The Cmax was 59.4 ± 7.32 ng/mL.

Question: And the MRT inf (in vivo; other: supralingual)?
Answer: Its MRT inf is 1.73 ± 0.82 h.

Question: What about the MRT last (in vivo; other: supralingual) of the same compound?
Answer: The MRT last was 1.5 ± 0.71 h.

Question: What about the Tmax (in vivo; other: supralingual) of the same compound?
Answer: The Tmax was 0.62 ± 0.58 h.

Question: And the Vd (in vivo; other: supralingual)?
Answer: Its Vd is 17.2 ± 7.7 L.

Question: And the clearance (in vivo; other: supralingual)?
Answer: The clearance was 199 mL/min.

Question: And the half-life (in vivo; other: supralingual)?
Answer: Its half-life is 1.13 ± 0.5 h.

Question: And the AUC(0-inf) (in vivo; po)?
Answer: Its AUC(0-inf) is 91.3 ± 48.6 ng·h/mL.

Question: What about the AUC(0-t) (in vivo; po) of the same compound?
Answer: The AUC(0-t) was 90 ± 48.7 ng·h/mL.

Question: And the Cmax (in vivo; po)?
Answer: Its Cmax is 45.9 ± 7.6 ng/mL.

Question: And the MRT inf (in vivo; po)?
Answer: The MRT inf was 1.79 ± 0.74 h.

Question: And the MRT last (in vivo; po)?
Answer: The MRT last was 1.71 ± 0.75 h.

Question: What about the Tmax (in vivo; po) of the same compound?
Answer: Its Tmax is 0.71 ± 0.53 h.

Question: What about the half-life (in vivo; po) of the same compound?
Answer: Its half-life is 0.92 ± 0.41 h.

Question: And the “Solubility (pH 6.8)” value [2]?
Answer: The value was 0.9 ^d mg/ml.

Question: What about the Oral bioavailability [3] of the same compound?
Answer: The Oral bioavailability was “about 70%”.

Question: What about the K12 [4] of the same compound?
Answer: The K12 was 16.352 ^e h^-1.

Question: And the K13 [4]?
Answer: The K13 was 0.4625 ^e h^-1.

Question: What about the K21 [4] of the same compound?
Answer: Its K21 is 9.007 ^e h^-1.

Question: And the K31 [4]?
Answer: Its K31 is 0.4103 ^e h^-1.

Question: And the “V2 (volume of distribution of the first peripheral compartment)” value [4]?
Answer: The value was 0.5699 ^e L/kg.

Question: And the “V3 (volume of distribution of the second peripheral compartment)” value [4]?
Answer: The value was 0.3538 ^e L/kg.

Question: For `Cc1ccc(-c2nc3ccc(C)cn3c2CC(=O)N(C)C)cc1` [zolpidem], which “Estimated absorption via the oral mucosa” value [5] is on record?
Answer: Its value is “about 18%”.
